Data: doi:10.1101/2025.05.09.653172, “Alternative Splicing in TRPA1 Drives Sensory Adaptation to Electrophiles in Drosophilids” (bioRxiv, 2025)

Experiments:
Test in all cases: two-electrode voltage clamp, Xenopus oocytes, heat-normalized AITC-evoked current
SfTRPA1-DL = system: T1, SfTRPA1-DL; format: cell-based, Scaptomyza flava; details: agonist (electrophile); ND96 pH 7.4, -60 mV; after prior heat stimulus (>40 °C); read-out: TRPA1-DL / SfTRPA1-DL
T1 construct: gene TrpA1; full CDS of splice isoform DL (artificial synthesis, Genscript) in pOX(+), cRNA-injected Xenopus laevis oocytes
From the text: two-electrode voltage clamp, Xenopus oocytes, heat-normalized AITC-evoked current on SfTRPA1-DL

SfTRPA1-CL = system: T2, SfTRPA1-CL; format: cell-based, Scaptomyza flava; details: agonist (electrophile); ND96 pH 7.4, -60 mV; after prior heat stimulus (>40 °C); read-out: TRPA1-CL / SfTRPA1-CL
T2 construct: gene TrpA1; full CDS of splice isoform CL (artificial synthesis, Genscript) in pOX(+), cRNA-injected Xenopus laevis oocytes
From the text: two-electrode voltage clamp, Xenopus oocytes, heat-normalized AITC-evoked current on SfTRPA1-CL

DmTRPA1-C = biological target: T3, DmTRPA1-C (Drosophila melanogaster, UniProt G8IQ59); format: cell-based; details: read-out: TRPA1-CL / DmTRPA1-C
T3 construct: gene TrpA1; full CDS of splice isoform C (cDNA from third-instar larva whole body) in pOX(+), cRNA-injected Xenopus laevis oocytes
T3 sequence (G8IQ59 1-1232): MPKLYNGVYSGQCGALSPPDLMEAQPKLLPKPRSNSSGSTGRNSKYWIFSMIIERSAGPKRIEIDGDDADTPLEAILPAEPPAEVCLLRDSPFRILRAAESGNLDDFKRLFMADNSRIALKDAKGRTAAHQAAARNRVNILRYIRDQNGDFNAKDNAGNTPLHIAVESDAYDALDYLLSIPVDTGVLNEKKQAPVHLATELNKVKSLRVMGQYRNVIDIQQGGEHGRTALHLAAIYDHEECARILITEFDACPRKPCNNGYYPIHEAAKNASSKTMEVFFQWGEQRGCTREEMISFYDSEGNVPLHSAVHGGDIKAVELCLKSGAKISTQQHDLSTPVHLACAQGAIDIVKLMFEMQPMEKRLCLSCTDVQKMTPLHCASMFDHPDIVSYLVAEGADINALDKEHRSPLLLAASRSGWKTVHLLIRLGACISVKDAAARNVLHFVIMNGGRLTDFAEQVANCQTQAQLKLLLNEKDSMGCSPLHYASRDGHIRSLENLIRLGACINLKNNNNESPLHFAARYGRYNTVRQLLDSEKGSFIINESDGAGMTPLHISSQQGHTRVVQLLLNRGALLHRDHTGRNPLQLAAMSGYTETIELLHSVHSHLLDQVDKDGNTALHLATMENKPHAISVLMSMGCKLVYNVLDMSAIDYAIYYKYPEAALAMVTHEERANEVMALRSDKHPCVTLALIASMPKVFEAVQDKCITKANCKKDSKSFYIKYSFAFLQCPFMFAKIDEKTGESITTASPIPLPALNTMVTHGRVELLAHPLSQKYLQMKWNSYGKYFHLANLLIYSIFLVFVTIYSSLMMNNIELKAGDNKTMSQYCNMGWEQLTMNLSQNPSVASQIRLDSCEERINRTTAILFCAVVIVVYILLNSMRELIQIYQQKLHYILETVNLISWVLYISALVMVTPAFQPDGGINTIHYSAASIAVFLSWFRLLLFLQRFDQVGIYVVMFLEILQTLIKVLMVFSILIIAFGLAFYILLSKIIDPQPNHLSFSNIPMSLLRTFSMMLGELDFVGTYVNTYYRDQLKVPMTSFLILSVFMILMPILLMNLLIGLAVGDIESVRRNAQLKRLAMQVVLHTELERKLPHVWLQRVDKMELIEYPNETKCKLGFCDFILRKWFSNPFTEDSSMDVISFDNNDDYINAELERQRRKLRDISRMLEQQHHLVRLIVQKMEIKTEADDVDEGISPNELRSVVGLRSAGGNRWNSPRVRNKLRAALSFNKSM
From the text: two-electrode voltage clamp, Xenopus oocytes, heat-normalized AITC-evoked current on DmTRPA1-C

SpTRPA1-CL = system: T4, SpTRPA1-CL; format: cell-based, Scaptomyza pallida; details: agonist (electrophile); ND96 pH 7.4, -60 mV; after prior heat stimulus (>40 °C); read-out: TRPA1-CL / SpTRPA1-CL
T4 construct: gene TrpA1; full CDS of splice isoform CL (cDNA from adult labella) in pOX(+), cRNA-injected Xenopus laevis oocytes
From the text: two-electrode voltage clamp, Xenopus oocytes, heat-normalized AITC-evoked current on SpTRPA1-CL

SpTRPA1-DL = system: T5, SpTRPA1-DL; format: cell-based, Scaptomyza pallida; details: agonist (electrophile); ND96 pH 7.4, -60 mV; after prior heat stimulus (>40 °C); read-out: TRPA1-DL / SpTRPA1-DL
T5 construct: gene TrpA1; full CDS of splice isoform DL (cDNA from adult tarsi) in pOX(+), cRNA-injected Xenopus laevis oocytes
From the text: two-electrode voltage clamp, Xenopus oocytes, heat-normalized AITC-evoked current on SpTRPA1-DL

DmTRPA1-D = biological target: T6, DmTRPA1-D (Drosophila melanogaster, UniProt H0USS9); format: cell-based; details: read-out: TRPA1-DL / DmTRPA1-D
T6 construct: gene TrpA1; full CDS of splice isoform D (cDNA gift from Marco Gallio lab) in pOX(+), cRNA-injected Xenopus laevis oocytes
T6 sequence (H0USS9 1-1231): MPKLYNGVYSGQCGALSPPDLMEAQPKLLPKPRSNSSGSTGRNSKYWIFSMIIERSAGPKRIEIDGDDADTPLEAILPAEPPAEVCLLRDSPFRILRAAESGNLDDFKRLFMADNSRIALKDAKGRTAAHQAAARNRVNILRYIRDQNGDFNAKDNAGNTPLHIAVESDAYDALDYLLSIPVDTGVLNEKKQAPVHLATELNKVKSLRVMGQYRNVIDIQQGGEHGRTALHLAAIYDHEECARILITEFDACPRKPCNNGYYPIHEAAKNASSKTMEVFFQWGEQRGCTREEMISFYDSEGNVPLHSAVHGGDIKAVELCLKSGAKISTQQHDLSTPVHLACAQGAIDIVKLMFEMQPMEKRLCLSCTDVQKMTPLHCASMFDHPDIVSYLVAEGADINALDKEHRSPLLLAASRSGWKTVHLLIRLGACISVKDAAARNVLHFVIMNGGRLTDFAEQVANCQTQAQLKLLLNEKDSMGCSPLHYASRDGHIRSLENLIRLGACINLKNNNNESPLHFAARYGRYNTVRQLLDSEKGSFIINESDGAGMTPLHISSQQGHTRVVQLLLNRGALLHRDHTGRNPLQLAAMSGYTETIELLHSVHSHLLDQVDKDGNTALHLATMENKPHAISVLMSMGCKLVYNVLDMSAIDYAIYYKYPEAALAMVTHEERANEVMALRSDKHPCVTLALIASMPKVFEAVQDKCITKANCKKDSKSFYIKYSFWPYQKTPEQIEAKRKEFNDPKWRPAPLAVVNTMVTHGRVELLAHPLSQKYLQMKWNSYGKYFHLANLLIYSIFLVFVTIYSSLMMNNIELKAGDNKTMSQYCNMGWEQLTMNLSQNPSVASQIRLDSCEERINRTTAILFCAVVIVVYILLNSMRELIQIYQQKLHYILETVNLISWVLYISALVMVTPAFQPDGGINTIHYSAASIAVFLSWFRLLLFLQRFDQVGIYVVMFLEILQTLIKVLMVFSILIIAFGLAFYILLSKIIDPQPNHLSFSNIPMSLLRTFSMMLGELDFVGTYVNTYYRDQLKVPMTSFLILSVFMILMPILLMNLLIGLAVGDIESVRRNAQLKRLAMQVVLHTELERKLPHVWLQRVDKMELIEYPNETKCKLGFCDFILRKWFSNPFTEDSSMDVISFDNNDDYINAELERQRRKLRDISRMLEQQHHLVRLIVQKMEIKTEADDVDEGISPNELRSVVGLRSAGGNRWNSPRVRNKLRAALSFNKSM
From the text: two-electrode voltage clamp, Xenopus oocytes, heat-normalized AITC-evoked current on DmTRPA1-D

C=CCN=C=S [allyl isothiocyanate]
EC50 (SfTRPA1-DL): 316 ± 31 µM
EC50 (SfTRPA1-CL): 65 ± 55 µM
EC50 (DmTRPA1-C): 8.6 ± 4.3 µM
EC50 (SpTRPA1-CL): 29 ± 15 µM
EC50 (SpTRPA1-DL): 103 ± 15 µM
EC50 (DmTRPA1-D): 341 ± 92 µM
